Patent US9604933B2, “Pyrazolochalcones as potential anticancer agents” (COUNCIL OF SCIENTIFIC AND INDUSTRIAL RESEARCH, priority 2013, dated 2017)

Key:
[1] = system: HCT-116; test: NCI SRB cytotoxicity, colon HCT-116; assay type: cell-based; conditions: Homo sapiens, 48 h exposure
Experimental: (§1) The pyrazolochalcones (7e, 8e, 10e, 11e, 12e, 13e and 8f) have been tested against fifty nine human tumor cell lines derived from nine cancer types (leukemia, non-small cell lung cancer, colon cancer, CNS cancer, melanoma, ovarian cancer, renal cancer, prostate cancer and breast cancer) as per the NCI protocol. For each compound, dose response curves for individual cell lines have been measured at a minimum of five concentrations at 10 fold dilutions. A protocol of 48 h continuous drug exposure has been used, and a sulforhodamine B (SRB) protein assay has been used to estimate cell viability or growth. The concentration for 50% cell growth inhibition (GI50), 50% cell death (LC50, 50% growth) and total cell growth inhibition (TGI, 0% growth) values were tabulated (Table-1). DMSO was used as control to calculate the values of GI50, LC50 and TGI. The compounds 7e, 8e, 10e, 11e, 12e, 13e and 8f has been evaluated for their in vitro cytotoxicity in […] cell lines from nine human cancer types of leukemia (K-562, SR), non-small cell lung (Hop-62, NCI-H226, NCI-H522), colon (HCT-116, HCT-15, HCC-2998), CNS (SF-539), melanoma (SK-MEL-5, UACC-62, M14), ovarian (IGROV1), renal (A498), prostate (PC3) and breast (BT-549, MDA-MB-435, HS578T) origin. The results are expressed as percent of cell growth determined relative to that of untreated control cells (Table 2).

[2] = system: SK-MEL-2; test: NCI SRB cytotoxicity, melanoma SK-MEL-2; assay type: cell-based; conditions: Homo sapiens, 48 h exposure
Experimental: as §1

[3] = system: SN12C; test: NCI SRB cytotoxicity, renal SN12C; assay type: cell-based; conditions: Homo sapiens, 48 h exposure
Experimental: as §1

[4] = system: Colon; test: NCI SRB cytotoxicity, colon panel average; assay type: cell-based, human; conditions: average of cell lines
Experimental: as §1
(§2) Each cancer type represents the average of six to eight different cancer cell lines.

[5] = system: MOLT-4; test: NCI SRB cytotoxicity, leukemia MOLT-4; assay type: cell-based; conditions: Homo sapiens, 48 h exposure
Experimental: as §1

[6] = system: Renal; test: NCI SRB cytotoxicity, renal panel average; assay type: cell-based, human; conditions: average of cell lines
Experimental: as §1, §2

[7] = system: UACC-62; test: NCI SRB cytotoxicity, melanoma UACC-62; assay type: cell-based; conditions: Homo sapiens, 48 h exposure
Experimental: as §1

[8] = system: Prostate; test: NCI SRB cytotoxicity, prostate panel average; assay type: cell-based, human; conditions: average of cell lines
Experimental: as §1, §2

[9] = system: CCRF-CEM; test: NCI SRB cytotoxicity, leukemia CCRF-CEM; assay type: cell-based; conditions: Homo sapiens, 48 h exposure
Experimental: as §1

[10] = system: Ovarian; test: NCI SRB cytotoxicity, ovarian panel average; assay type: cell-based, human; conditions: average of cell lines
Experimental: as §1, §2

[11] = system: RXF 393; test: NCI SRB cytotoxicity, renal RXF 393; assay type: cell-based; conditions: Homo sapiens, 48 h exposure
Experimental: as §1

[12] = system: Leukemia; test: NCI SRB cytotoxicity, leukemia panel average; assay type: cell-based, human; conditions: average of cell lines
Experimental: as §1, §2

[13] = system: MDA-MB-231/ATCC; test: NCI SRB cytotoxicity, breast MDA-MB-231/ATCC; assay type: cell-based; conditions: Homo sapiens, 48 h exposure
Experimental: as §1

[14] = system: DU-145; test: NCI SRB cytotoxicity, prostate DU-145; assay type: cell-based; conditions: Homo sapiens, 48 h exposure
Experimental: as §1

[15] = system: HS 578T; test: NCI SRB cytotoxicity, breast HS 578T; assay type: cell-based; conditions: Homo sapiens, 48 h exposure
Experimental: as §1

[16] = system: OVCAR-3; test: NCI SRB cytotoxicity, ovarian OVCAR-3; assay type: cell-based; conditions: Homo sapiens, 48 h exposure
Experimental: as §1

[17] = system: K-562; test: NCI SRB cytotoxicity, leukemia K-562; assay type: cell-based; conditions: Homo sapiens, K562, 48 h exposure
Experimental: as §1

[18] = system: UO-31; test: NCI SRB cytotoxicity, renal UO-31; assay type: cell-based; conditions: Homo sapiens, 48 h exposure
Experimental: as §1

[19] = system: Non-small cell lung; test: NCI SRB cytotoxicity, non-small cell lung panel average; assay type: cell-based, human; conditions: average of cell lines
Experimental: as §1, §2

[20] = system: Melanoma; test: NCI SRB cytotoxicity, melanoma panel average; assay type: cell-based, human; conditions: average of cell lines
Experimental: as §1, §2

[21] = system: UACC-257; test: NCI SRB cytotoxicity, melanoma UACC-257; assay type: cell-based; conditions: Homo sapiens, 48 h exposure
Experimental: as §1

[22] = system: NCI-H23; test: NCI SRB cytotoxicity, non-small cell lung NCI-H23; assay type: cell-based; conditions: Homo sapiens, 48 h exposure
Experimental: as §1

[23] = system: PC-3; test: NCI SRB cytotoxicity, prostate PC-3; assay type: cell-based; conditions: Homo sapiens, 48 h exposure
Experimental: as §1

[24] = system: SF-539; test: NCI SRB cytotoxicity, CNS SF-539; assay type: cell-based; conditions: Homo sapiens, 48 h exposure
Experimental: as §1

[25] = system: NCI/ADR-RES; test: NCI SRB cytotoxicity, ovarian NCI/ADR-RES; assay type: cell-based; conditions: Homo sapiens, 48 h exposure
Experimental: as §1

[26] = system: TK-10; test: NCI SRB cytotoxicity, renal TK-10; assay type: cell-based; conditions: Homo sapiens, 48 h exposure
Experimental: as §1

[27] = system: SNB-75; test: NCI SRB cytotoxicity, CNS SNB-75; assay type: cell-based; conditions: Homo sapiens, 48 h exposure
Experimental: as §1

[28] = system: A549/ATCC; test: NCI SRB cytotoxicity, non-small cell lung A549/ATCC; assay type: cell-based; conditions: Homo sapiens, 48 h exposure
Experimental: as §1

[29] = system: HL-60(TB); test: NCI SRB cytotoxicity, leukemia HL-60(TB); assay type: cell-based; conditions: Homo sapiens, 48 h exposure
Experimental: as §1

[30] = system: MCF7; test: NCI SRB cytotoxicity, breast MCF7; assay type: cell-based; conditions: Homo sapiens, 48 h exposure
Experimental: as §1

[31] = system: NCI-H460; test: NCI SRB cytotoxicity, non-small cell lung NCI-H460; assay type: cell-based; conditions: Homo sapiens, 48 h exposure
Experimental: as §1

[32] = Homo sapiens, read-out: Log10 GI50 (concentration in mol/L causing 50% growth inhibition) (converted)
[33] = Homo sapiens, read-out: Log10 LC50 (concentration in mol/L causing 50% cell death) (converted)

COc1ccc(C(=O)/C=C/c2cc(-c3cc(OC)c(OC)c(OC)c3)n[nH]2)cc1OC [8e, (E)-1-(3,4-dimethoxyphenyl)-3-(3-(3,4,5-trimethoxyphenyl)-1H-pyrazol-5-yl)prop-2-en-1-one]
GI50 [1]: 0.88 µM | GI50 [2]: 1.85 µM | GI50 [3]: 1.54 µM | GI50 [4, 32]: 1.41 µM | LC50 [4, 33]: 6.17 µM | Log10 TGI (concentration in mol/L causing total growth inhibition) [4]: −5.52 mol/L | GI50 [5]: 2.11 µM | GI50 [6, 32]: 1.51 µM | CC50 [6, 33]: 6.61 µM | Log10 TGI (concentration in mol/L causing total growth inhibition (0% growth)) [6]: −5.51 mol/L | GI50 [7]: 1.74 µM | GI50 [8, 32]: 0.871 µM | CC50 [8, 33]: 5.25 µM | Log10 TGI (concentration in mol/L causing total growth inhibition (0% growth)) [8]: −5.64 mol/L | GI50 [9]: 0.62 µM | GI50 [10, 32]: 2.09 µM | CC50 [10, 33]: 15.1 µM | Log10 TGI (concentration in mol/L causing total growth inhibition (0% growth)) [10]: −5.29 mol/L | GI50 [11]: 1.35 µM | GI50 [12, 32]: 0.794 µM | CC50 [12, 33]: 97.7 µM | Log10 TGI (concentration in mol/L causing total growth inhibition (0% growth)) [12]: −5.19 mol/L | GI50 [13]: 1.48 µM | GI50 [14]: 0.55 µM | GI50 [15]: 2.57 µM | GI50 [16]: 1.68 µM | GI50 [17]: 1.91 µM | GI50 [18]: 1.28 µM | GI50 [19, 32]: 1.23 µM | LC50 [19, 33]: 6.46 µM | Log10 TGI (concentration in mol/L causing total growth inhibition (0% growth)) [19]: −5.58 mol/L | GI50 [20, 32]: 1.7 µM | LC50 [20, 33]: 6.17 µM | Log10 TGI (concentration in mol/L causing total growth inhibition) [20]: −5.49 mol/L | GI50 [21]: 1.49 µM | GI50 [22]: 2.15 µM | GI50 [23]: 1.36 µM | GI50 [24]: 1.27 µM | GI50 [25]: 3.13 µM | GI50 [26]: 1.33 µM | GI50 [27]: 1.23 µM | GI50 [28]: 1.86 µM | GI50 [29]: 1.44 µM | GI50 [30]: 0.82 µM | GI50 [31]: 1.41 µM
